Laboratory results published in PMC2951065 (Journal of Medicinal Chemistry, 2010).
Structures can show the parent of a compound that is named as a salt. Each block holds one compound with its values, some of them ahead of it.

Legend:
COS 7 cells [1] = experiment: Apoptosis assay: etoposide-induced cell death, Trypan Blue exclusion; settings: for etoposide-induced increase in apoptotic cells: COS 7, 0.1% FBS
[2] = biological target: T1, phosphatase domain of PHLPP2 (Homo sapiens, UniProt Q6ZVD8); experiment: In vitro inhibition of PHLPP2 phosphatase domain, pNPP as substrate; format: biochemical; settings: for mechanism (type) of inhibition: with respect to pNPP
T1 sequence (Q6ZVD8 785-1033 limits assumed): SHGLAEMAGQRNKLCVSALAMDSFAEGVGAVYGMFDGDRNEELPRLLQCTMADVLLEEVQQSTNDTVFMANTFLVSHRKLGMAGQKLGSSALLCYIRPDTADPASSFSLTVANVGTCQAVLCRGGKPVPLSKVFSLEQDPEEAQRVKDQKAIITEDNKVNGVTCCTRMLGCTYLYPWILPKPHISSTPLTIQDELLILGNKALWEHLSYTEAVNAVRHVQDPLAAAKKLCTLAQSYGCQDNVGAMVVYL

PP1 = PP1 (Oryctolagus cuniculus, UniProt P62139); experiment: Selectivity toward other phosphatases: PP1, pNPP; format: biochemical
PP2B/calcineurin = PP2B/calcineurin (Homo sapiens, UniProt Q08209); experiment: Selectivity toward other phosphatases: PP2B, pNPP; format: biochemical
PP2Cα = biological target: T2, PP2Cα (Homo sapiens, UniProt P35813); experiment: Selectivity toward other phosphatases: PP2Cα, pNPP; format: biochemical
T2 sequence (P35813 1-382): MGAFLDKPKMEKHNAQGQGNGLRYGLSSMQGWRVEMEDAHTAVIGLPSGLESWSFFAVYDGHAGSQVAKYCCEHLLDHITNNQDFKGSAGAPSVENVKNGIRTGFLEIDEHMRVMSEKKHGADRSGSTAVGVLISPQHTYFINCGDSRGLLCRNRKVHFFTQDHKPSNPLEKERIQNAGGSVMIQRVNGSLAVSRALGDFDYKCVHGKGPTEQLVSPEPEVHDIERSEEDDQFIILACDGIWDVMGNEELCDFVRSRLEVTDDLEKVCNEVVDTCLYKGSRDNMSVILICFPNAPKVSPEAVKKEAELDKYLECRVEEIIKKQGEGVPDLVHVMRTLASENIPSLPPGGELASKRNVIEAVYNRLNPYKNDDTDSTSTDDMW

COS 7 cells [3] = format: cell-based
COS 7 cells [4] = experiment: Agonist; format: cell-based
[5] = Precipitation in cell culture medium; format: physicochemical
[6] = 50 μM pretreatment 30 min, etoposide 24 h
[7] = highest concentration tested (100 μM)
[8] = 10-fold higher concentration than 10 μM

Sequence of PP1 (P62139 whole entry): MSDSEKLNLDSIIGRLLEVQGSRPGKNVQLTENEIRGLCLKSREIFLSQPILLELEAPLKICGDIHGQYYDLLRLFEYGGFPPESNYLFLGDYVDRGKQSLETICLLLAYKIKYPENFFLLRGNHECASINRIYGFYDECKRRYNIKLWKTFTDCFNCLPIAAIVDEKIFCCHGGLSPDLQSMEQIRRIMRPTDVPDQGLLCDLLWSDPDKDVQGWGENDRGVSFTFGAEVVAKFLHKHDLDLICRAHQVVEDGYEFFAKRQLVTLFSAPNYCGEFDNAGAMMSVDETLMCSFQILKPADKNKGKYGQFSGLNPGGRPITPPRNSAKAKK
Sequence of PP2B/calcineurin (P63098 whole entry, other chains not shown): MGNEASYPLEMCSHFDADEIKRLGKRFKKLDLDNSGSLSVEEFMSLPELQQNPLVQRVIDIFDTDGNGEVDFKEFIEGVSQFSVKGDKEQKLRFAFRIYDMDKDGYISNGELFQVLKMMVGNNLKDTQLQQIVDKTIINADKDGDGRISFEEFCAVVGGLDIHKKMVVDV

mechanism (type) of inhibition [2]: Competitive
Structure (SMILES): NS(=O)(=O)c1ccc(/N=N/c2ncccc2O)cc1 [Compound 7]

mechanism (type) of inhibition [2]: noncompetitive
IC50 (PP1): ~100 µM
effect on PP2B activity (PP2B/calcineurin; [7]): neither molecule affected the activity
IC50 (PP2Cα): ~100 µM
Structure (SMILES): Cc1cc(/N=N/c2ccc(/N=N/c3ccc(O)c(C(=O)O)c3)cc2)c(N)cc1N [Compound 13, 1,3-[[4-(2,4-diamino-5-methylphenyl)diazenylphenyl]hydrazinylidene]-6-oxocyclohexa-1,4-diene-1-carboxylic acid]
modulation of Ser473 phosphorylation (COS 7 cells [3]; cells grown in serum, data not shown): considerably less effective
increase in the phosphorylation of Ser473 (basal Akt) (COS 7 cells [3]; serum-starved COS 7, 35 min): approximately 4 fold
sensitivity of phosphorylation of Akt on Thr308 compared with Ser473 (COS 7 cells [3]; serum-starved COS 7, 35 min): not significantly different
effect on etoposide-induced increase in apoptotic cells (COS 7 cells [1]; [6]): essentially abolished

mechanism (type) of inhibition [2]: uncompetitive
Structure (SMILES): COc1cc(NCCC2CCCCN2)c2ncccc2c1 (stereo not drawn) [Compound 4]
toxicity to cells (HT29 cells; HT29, 24 h): induced cells to detach from culture dishes, reflecting toxicity
phosphorylation of downstream substrates GSK3 α/β (Ser21/9) and FoxO1/3α (Thr 24/32); Akt activity (HT29 cells; HT29, 24 h, 100 or 250 μM): corresponding increases

Further lines, the compound ahead of its results:

Structure (SMILES): COc1cc([C@@H]2c3cc4c(cc3[C@@H](O[C@@H]3O[C@@H]5CO[C@@H](C)O[C@H]5[C@H](O)[C@H]3O)[C@H]3COC(=O)[C@H]23)OCO4)cc(OC)c1O [Etoposide, etoposide, reference compound]
etoposide-induced increase in apoptotic cells (COS 7 cells [1]; [6]): 3.4 ± 0.4 fold

Structure (SMILES): COc1ccc2nc3cc(Cl)ccc3c(Nc3ccc(C(=O)O)cc3)c2c1 [Compound 24]
phosphorylation of downstream substrates GSK3 α/β (Ser21/9) and FoxO1/3α (Thr 24/32); Akt activity (HT29 cells; HT29, 24 h, 100 or 250 μM): corresponding increases

Structure (SMILES): Nc1c(S(=O)(=O)O)cc(Nc2cccc(S(N)(=O)=O)c2)c2c1C(=O)c1ccccc1C2=O [Compound 1, 1-amino-9,10-dioxo-4-(3-sulfamoylanilino)anthracene-2-sulfonic acid, sodium salt]
IC50 [2]: 5.45 ± 0.05 µM
selectivity for PHLPP over the other phosphatases tested ([2]; vs PP1, PP2B, PP2Cα): over an order of magnitude
mechanism (type) of inhibition [2]: noncompetitive
IC50 (PP1): ~100 µM
effect on PP1 activity (PP1; 10 μM compound): no significant effect
inhibition of PP1 (PP1; [8]): approximately 50%
effect on PP2B activity (PP2B/calcineurin; 10 μM compound): no significant effect
effect on PP2B activity (PP2B/calcineurin; [7]): neither molecule affected the activity
IC50 (PP2Cα): ~100 µM
effect on PP2Cα activity (PP2Cα; 10 μM compound): no significant effect
inhibition of PP2Cα (PP2Cα; [8]): approximately 50%
selectivity for Ser473 compared to Thr308 (COS 7 cells [3]): almost 1 order of magnitude
increase in the phosphorylation of Ser473 (basal Akt) (COS 7 cells [3]; serum-starved COS 7, 35 min): approximately 6 fold
EGF-evoked increase in p308 phosphorylation (COS 7 cells [4]; 50 μM pretreatment, then EGF): approximately 6 fold
basal phosphorylation at Ser473 compared with DMSO (COS 7 cells [4]; 50 μM, 35 min pretreatment, serum-starved COS 7): significantly higher
concentration at which compound tends to precipitate in the cell culture medium [5]: > 300 µM
phosphorylation of Akt on Ser 473 (HT29 cells; HT29, 5% FBS, 24 h, 100 or 250 μM): increased Akt phosphorylation and activity in cells
phosphorylation of downstream substrates GSK3 α/β (Ser21/9) and FoxO1/3α (Thr 24/32); Akt activity (HT29 cells; HT29, 24 h, 100 or 250 μM): corresponding increases
basal level of apoptotic cells (COS 7 cells [1]; 50 μM compound, no etoposide): approximately 12%
reduction of the magnitude of the etoposide-induced increase in apoptotic cells (COS 7 cells [1]; [6]): approximately 30%
etoposide-induced increase in apoptotic cells (COS 7 cells [1]; [6]): 2.6 ± 0.3 fold

Structure (SMILES): COc1ccc(NCc2c(O)ccc3ccccc23)cc1 [Compound 2]
mechanism (type) of inhibition [2]: Noncompetitive
